Experiment [1] concerns the target T1, MOF-KAT8 (Homo sapiens, UniProt Q9H7Z6).
T1 sequence (Q9H7Z6 177-447): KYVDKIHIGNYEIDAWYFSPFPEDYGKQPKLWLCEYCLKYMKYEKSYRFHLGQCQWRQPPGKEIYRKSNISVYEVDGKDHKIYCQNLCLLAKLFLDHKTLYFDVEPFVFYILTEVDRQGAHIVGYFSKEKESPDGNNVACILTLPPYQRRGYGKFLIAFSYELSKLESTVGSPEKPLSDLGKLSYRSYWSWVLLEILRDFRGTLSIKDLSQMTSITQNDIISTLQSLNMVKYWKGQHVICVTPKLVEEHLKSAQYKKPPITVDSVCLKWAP
The experiment can be described thus: Acetyltransferase biochemical assay (AlphaScreen), KAT8. Conditions: Table 4 (MOF-KAT8); 0.4 μM Acetyl coenzyme A, histone H4, 20 nM enzyme.

The target in experiment [2] is T2, MOZ-KAT6A (Homo sapiens, UniProt Q92794, A567V).
T2 construct: encoding amino acid residues 507 to 778 (Uniprot Q92794-1) of human KAT6A; made in house; host or cells: E. coli BL21 DE3
In words: Revised Acetyltransferase Biochemical Assay, KAT6A. Particulars: Table 8 (MOZ-KAT6A), 1 μM Acetyl coenzyme A.

Experiment [3] addresses T3, HBO-KAT7 (Homo sapiens, UniProt O95251).
T3 construct: encoding amino acid residues 325 to 611 (Uniprot 095251-1) of human KAT7; made in house; host or cells: E. coli BL21 DE3 RIL
The experiment can be described thus: Revised Acetyltransferase Biochemical Assay, KAT7. Particulars: Table 9 (HBO-KAT7), 1 μM Acetyl coenzyme A.

The target in experiment [4] is T4, TIP60-KAT5 (Homo sapiens, UniProt Q92993).
T4 construct: encoding amino acid residues 2 to 461 (Uniprot Q92993-2) of human KAT5 isoform; made in house; host or cells: E. coli BL21 DE3
In words: Revised Acetyltransferase Biochemical Assay, KAT5. Particulars: 10 nM KAT5, 1 μM AcCoA, 100 nM histone H4, 90 min.

In experiment [5] the target is T1, MOF-KAT8. In words: Revised Acetyltransferase Biochemical Assay, KAT8.
The target of experiment [6] is T3, HBO-KAT7. The experiment can be described thus: Acetyltransferase biochemical assay (AlphaScreen), KAT7. Conditions: Table 3 (HBO-KAT7); 0.4 μM Acetyl coenzyme A, histone H3.1, 40 nM enzyme.
Experiment [7] concerns the target T4, TIP60-KAT5. In words: Acetyltransferase biochemical assay (AlphaScreen), KAT5. Conditions: Table 1 (TIP60-KAT5); 0.4 μM Acetyl coenzyme A, histone H4, 10 nM enzyme. (In general: Bead proximity is the source of the signal in Alpha formats.)
The target in experiment [8] is T2, MOZ-KAT6A. The experiment can be described thus: Acetyltransferase biochemical assay (AlphaScreen), KAT6A. Conditions: Table 2 (MOZ-KAT6A); 10 μM Acetyl coenzyme A, histone H3.1, 5 nM enzyme.
Experiment [9] relates to histone H2A.Z Lysine 7 acetylation (TIP60 mediated) in U2OS cells. In words: H2A.Z Lysine 7 Acetylation Biomarker Assay (384-well, U2OS). The format is cell-based. Particulars: Homo sapiens, serum free medium, 24 hours incubation. The method, then:
Compounds may be tested for their ability to inhibit the histone H2A.Z Lysine 7 acetylation marker (which is TIP60 mediated) in the following assay:
The cell line U2OS was seeded at a density of 3,000 cells per well in 384-well optical quality tissue culture plates in RPMI medium supplemented with 10% foetal bovine serum and 10 mM Hepes. The cells were allowed to adhere for 24 hours under standard culture conditions (37 degree Celsius, 5% CO2). At the end of this period the cells were washed with serum free medium. […] After incubation for 24 hours, the cells were fixed with 4% formaldehyde in PBS for 15 minutes at room temperature, washed with phosphate buffer saline and blocked with blocking buffer containing 0.2% TritonX100 and 2% BSA. Anti-H2A.ZK7ac specific antibody (Abcam) in blocking buffer was added and incubated overnight at 4 degree Celsius. After washing, a secondary antibody labelled with AlexaFluor 488 dye (ThermoFisher) and Hoechst 33342 (1 μg/mL, Life Technologies) were added for 2 hours incubation at room temperature. Plates were washed and read on a PerkinElmer Opera HCS high content imaging platform. Using a Columbus image analysis pipeline, individual nuclei were located by Hoechst 33342 stain and the acetylation level was calculated from the AlexaFluor 488-related intensity in the same area. The resulting mean intensity per cell was converted to percent inhibition relative to controls on the same plate and the data fitted against a four-parameter logistic model to determine the 50% inhibitory concentration (IC50).

T3 sequence (O95251 with tags, fused parts or gaps): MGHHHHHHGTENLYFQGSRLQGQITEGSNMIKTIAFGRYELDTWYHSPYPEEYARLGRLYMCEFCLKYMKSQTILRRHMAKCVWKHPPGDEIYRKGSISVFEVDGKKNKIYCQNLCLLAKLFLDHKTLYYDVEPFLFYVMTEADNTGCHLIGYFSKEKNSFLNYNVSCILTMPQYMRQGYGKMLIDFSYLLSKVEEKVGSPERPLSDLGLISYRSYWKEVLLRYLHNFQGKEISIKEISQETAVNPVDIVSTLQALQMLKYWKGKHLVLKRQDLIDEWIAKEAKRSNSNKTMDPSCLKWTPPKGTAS
T4 sequence (Q92993 2-461 isoform Q92993-2): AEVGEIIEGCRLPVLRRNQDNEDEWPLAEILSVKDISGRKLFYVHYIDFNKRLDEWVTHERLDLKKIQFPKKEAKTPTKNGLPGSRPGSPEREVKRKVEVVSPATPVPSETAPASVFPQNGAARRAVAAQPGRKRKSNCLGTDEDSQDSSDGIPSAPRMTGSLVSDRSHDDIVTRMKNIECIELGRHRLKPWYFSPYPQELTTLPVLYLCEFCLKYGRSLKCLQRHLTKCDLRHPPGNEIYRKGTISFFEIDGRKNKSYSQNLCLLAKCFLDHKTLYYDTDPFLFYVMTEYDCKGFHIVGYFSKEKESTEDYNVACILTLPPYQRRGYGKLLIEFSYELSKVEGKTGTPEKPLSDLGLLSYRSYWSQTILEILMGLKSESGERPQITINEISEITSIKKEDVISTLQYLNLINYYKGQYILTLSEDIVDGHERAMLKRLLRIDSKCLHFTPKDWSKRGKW
T2 sequence (Q92794 507-778 A567V limits assumed): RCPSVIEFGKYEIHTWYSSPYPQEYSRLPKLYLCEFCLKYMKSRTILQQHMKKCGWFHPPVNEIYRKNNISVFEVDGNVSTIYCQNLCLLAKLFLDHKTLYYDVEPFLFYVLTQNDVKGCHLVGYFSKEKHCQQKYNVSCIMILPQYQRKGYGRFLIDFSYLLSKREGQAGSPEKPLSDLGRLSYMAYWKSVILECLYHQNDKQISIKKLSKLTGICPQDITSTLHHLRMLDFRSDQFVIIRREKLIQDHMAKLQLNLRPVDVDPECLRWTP

`Cc1ccc(C(CNC(=O)C2=Nc3ccc(Cl)cc3S(=O)(=O)N2)c2ncco2)cc1` (centres unmarked) [Example 170]: the IC50 at MOF-KAT8 [1] was 3.75 µM; at MOZ-KAT6A [2], 0.143 µM; on HBO-KAT7 [3], 1.63 µM; against TIP60-KAT5 [4], 13.3 µM; against MOF-KAT8 [5] it was greater than 125 µM.
On to `O=C(NCC(c1ccccc1)c1ccccn1)C1=Nc2ccc(Br)cc2S(=O)(=O)N1` (centres unmarked) [Example 173], for which the IC50 on HBO-KAT7 [6] is 0.051 µM; on MOF-KAT8 [1], 39.1 µM; on MOZ-KAT6A [2], 0.011 µM; against HBO-KAT7 [3], 0.161 µM; against TIP60-KAT5 [4], 0.651 µM; against MOF-KAT8 [5], 30.4 µM.
Regarding `CN(C)C(=O)c1ccc2c(c1)S(=O)(=O)NC(C(=O)NCC(c1ccccc1)c1ncco1)=N2` (centres unmarked) [Example 33, N^7,N^7-Dimethyl-N^3-(2-(oxazol-2-yl)-2-phenylethyl)-2H-benzo[e][1,2,4]thiadiazine-3,7-dicarboxamide 1,1-dioxide], the IC50 at TIP60-KAT5 [7] is 6.95 µM; against MOZ-KAT6A [8], 0.126 µM; against HBO-KAT7 [6], 6.78 µM; against MOF-KAT8 [1], 89.6 µM; against MOZ-KAT6A [2], 0.047 µM; against HBO-KAT7 [3] it was 0.551 µM. Further, the IC50 was 3.78 µM at TIP60-KAT5 [4] and greater than 125 µM against MOF-KAT8 [5].
With `O=C(NCCc1ccccc1OC(F)(F)F)C1=Nc2ccc(Br)cc2S(=O)(=O)N1` [Example 114], the half-maximal inhibitory concentration (IC50) is 0.954 µM against TIP60-KAT5 [7], 0.861 µM on MOZ-KAT6A [8], 0.529 µM at HBO-KAT7 [6] and greater than 125 µM on MOF-KAT8 [1].
`O=C(NCC(c1ncco1)c1ccccc1F)C1=Nc2ccc(Cl)cc2S(=O)(=O)N1` (centres unmarked) [Example 236, 7-chloro-N-(2-(2-fluorophenyl)-2-(oxazol-2-yl)ethyl)-2H-benzo[e][1,2,4]thiadiazine-3-carboxamide 1,1-dioxide]: the IC50 turned out to be 20.2 µM against MOF-KAT8 [1]; 0.01 µM at MOZ-KAT6A [2]; 0.073 µM on HBO-KAT7 [3]; 0.113 µM against TIP60-KAT5 [4]; 7.85 µM in experiment [9]; 19.6 µM against MOF-KAT8 [5].
Turning to `O=C(NCCc1ccccc1O)C1=Nc2ccc(Br)cc2S(=O)(=O)N1` [Example 116], the figures for the concentration for half-maximal inhibition (IC50) against TIP60-KAT5 [7], against MOZ-KAT6A [8] and at MOF-KAT8 [1] were 4.44 µM, 2.26 µM and 56.7 µM, respectively.
For `CS(=O)(=O)c1ccc2c(c1)S(=O)(=O)NC(C(=O)NCC(c1ccccc1)c1ncco1)=N2` (centres unmarked) [Example 191], the IC50 against MOZ-KAT6A [2] is 0.043 µM; against HBO-KAT7 [3], 0.243 µM; at TIP60-KAT5 [4], 0.919 µM; in [9] it was greater than 40 µM.
As for `O=C(NCCc1ccccc1-n1ccnn1)C1=Nc2ccc(I)cc2S(=O)(=O)N1` [Example 241, N-(2-(1H-1,2,3-triazol-1-yl)phenethyl)-7-iodo-2H-benzo[e][1,2,4]thiadiazine-3-carboxamide 1,1-dioxide], the IC50 against MOZ-KAT6A [2] was 0.082 µM; against HBO-KAT7 [3], 0.948 µM; against TIP60-KAT5 [4], 1.01 µM; in experiment [9], greater than 40 µM.
As for `O=C(NCC(c1ccccc1)c1ncco1)C1=Nc2ccc(C(=O)O)cc2S(=O)(=O)N1` (centres unmarked) [Example 24, 3-((2-(Oxazol-2-yl)-2-phenylethyl)carbamoyl)-2H-benzo[e][1,2,4]thiadiazine-7-carboxylic Acid 1,1-dioxide], the IC50 against TIP60-KAT5 [7] worked out at 7.16 µM; against MOZ-KAT6A [8], 0.127 µM; against HBO-KAT7 [6], 0.141 µM; at MOF-KAT8 [1], 69.6 µM; at MOZ-KAT6A [2] it was 0.11 µM; on HBO-KAT7 [3] it was 0.583 µM. Moreover, inhibition at TIP60-KAT5 [4] was half-maximal at 5.4 µM (IC50).
With `N#Cc1ccccc1C(CNC(=O)C1=Nc2ccccc2S(=O)(=O)N1)c1ncco1` (centres unmarked) [Example 218, N-(2-(2-Cyanophenyl)-2-(oxazol-2-yl)ethyl)-2H-benzo[e][1,2,4]thiadiazine-3-carboxamide 1,1-dioxide], the IC50 on MOF-KAT8 [1] was greater than 125 µM; against MOZ-KAT6A [2] it was 0.153 µM; against HBO-KAT7 [3], 9.41 µM; at TIP60-KAT5 [4], 16.8 µM; against MOF-KAT8 [5], greater than 125 µM.
For `CNC(=O)CCCOC(=O)C(CNC(=O)C1=Nc2ccc(I)cc2S(=O)(=O)N1)c1ccccc1` (centres unmarked) [Example 180], the concentration for half-maximal inhibition (IC50) against MOF-KAT8 [1] stood at 77 µM; against MOZ-KAT6A [2], 0.229 µM; against HBO-KAT7 [3], 0.557 µM; on TIP60-KAT5 [4], 0.249 µM; in experiment [9], 37.5 µM.
As for `O=C(NCC(O)c1ccccc1)C1=Nc2ccc(I)cc2S(=O)(=O)N1` (centres unmarked) [Example 87], the half-inhibitory concentration (IC50) against TIP60-KAT5 [7] came out at 4.47 µM; against MOZ-KAT6A [8], 8.93 µM; on HBO-KAT7 [6], 12 µM; at MOF-KAT8 [1] it was 114 µM.
Turning to `O=C(NCC(O)c1ccccc1)C1=Nc2ccc(Br)cc2S(=O)(=O)N1` (centres unmarked) [Example 82], the results for the IC50 against TIP60-KAT5 [7], on MOZ-KAT6A [8] and against MOF-KAT8 [1] were 7.82 µM, 9.19 µM and greater than 125 µM, respectively.
As for `COc1ccccc1CCNC(=O)C1=Nc2ccc(I)cc2S(=O)(=O)N1` [Example 86], the IC50 against TIP60-KAT5 [7] was found to be 1.17 µM; against MOZ-KAT6A [8] it was 2.7 µM; at HBO-KAT7 [6], 1.33 µM; on MOF-KAT8 [1], 39.4 µM; on MOZ-KAT6A [2], 0.096 µM; at HBO-KAT7 [3], 0.787 µM. The IC50 against TIP60-KAT5 [4] amounted to 0.521 µM; on MOF-KAT8 [5], 42.4 µM.
Regarding `COC(=O)c1ccccc1C(CNC(=O)C1=Nc2ccccc2S(=O)(=O)N1)c1ncco1` (centres unmarked) [Example 219, Methyl 2-(2-(1,1-dioxido-2H-benzo[e][1,2,4]thiadiazine-3-carboxamido)-1-(oxazol-2-yl)ethyl)benzoate], the IC50 against MOF-KAT8 [1] was greater than 125 µM; against MOZ-KAT6A [2], 3.59 µM; on HBO-KAT7 [3], 105 µM; against TIP60-KAT5 [4] it was greater than 125 µM; against MOF-KAT8 [5], greater than 125 µM.
Consider `O=C(NCC(c1ccccc1)c1ncco1)C1=Nc2ccc(OC(F)(F)F)cc2S(=O)(=O)N1` (centres unmarked) [Example 5, N-(2-(Oxazol-2-yl)-2-phenylethyl)-7-(trifluoromethoxy)-2H-benzo[e][1,2,4]thiadiazine-3-carboxamide 1,1-dioxide], for which the IC50 on TIP60-KAT5 [7] was 1.17 µM; against MOZ-KAT6A [8], 0.667 µM; on HBO-KAT7 [6], 2.04 µM; against MOF-KAT8 [1] it was 27.7 µM; against MOZ-KAT6A [2], 0.069 µM; at TIP60-KAT5 [4], 0.493 µM.
As to `O=C(NCC(c1ccc(F)cc1)c1ncco1)C1=Nc2ccc(Cl)cc2S(=O)(=O)N1` (centres unmarked) [Example 165], the IC50 against MOF-KAT8 [1] is 43.1 µM; against MOZ-KAT6A [2], 0.031 µM; against HBO-KAT7 [3], 1.77 µM; against TIP60-KAT5 [4], 6.02 µM; on MOF-KAT8 [5], greater than 125 µM.
Turning to `O=C(NCCc1ccccc1-c1ncco1)C1=Nc2ccccc2S(=O)(=O)N1` [Example 7, N-(2-(Oxazol-2-yl)phenethyl)-2H-benzo[e][1,2,4]thiadiazine-3-carboxamide1,1-dioxide], the concentration for half-maximal inhibition (IC50) at TIP60-KAT5 [7] was 11.7 µM; against MOZ-KAT6A [8] it was 2.8 µM; on HBO-KAT7 [6], 11.9 µM; against MOF-KAT8 [1], greater than 125 µM; on MOZ-KAT6A [2], 0.316 µM; against HBO-KAT7 [3], 1.18 µM. Moreover, the IC50 against TIP60-KAT5 [4] came out at 5.92 µM; at MOF-KAT8 [5], 81.6 µM.
`O=C(NCC(c1ncco1)c1ccccc1I)C1=Nc2ccccc2S(=O)(=O)N1` (centres unmarked) [Example 174, N-(2-(2-iodophenyl)-2-(oxazol-2-yl)ethyl)-2H-benzo[e][1,2,4]thiadiazine-3-carboxamide 1,1-dioxide]: the IC50 on HBO-KAT7 [6] was 7.49 µM; on MOF-KAT8 [1], greater than 125 µM; against MOZ-KAT6A [2], 0.573 µM; against HBO-KAT7 [3], 4.15 µM; on TIP60-KAT5 [4] it was 15.3 µM.

Broadly, the IC50 is the concentration that gives 50% inhibition. A high value points to lower potency.
